Laboratory results as given in US12370165B2, “Hunger suppression” (TDeltaS Limited, priority 2017, dated 2025).

Experiments:
appetite = details: rats; cited from earlier work
plasma ghrelin = assay: General finding on esters: plasma ghrelin levels; details: in vivo
[1] = General findings on esters: circulating (R)-3-hydroxybutyrate, gut uptake; type: in vivo
insulin = assay: Plasma insulin after study drink (ELISA); type: in vivo, human
Protocol: (§1) A randomised, single-blinded, cross-over study examined the effects of isocaloric ketone ester (KE) and dextrose drinks hunger in healthy, normal-weight participants (n=15) (FIG. 1A). An external Research Ethics Committee (14/LO/0288) approved the study, which was conducted at the University of Oxford in accordance with the Declaration of Helsinki. Participants were healthy, aged 21-42 and with no history of major illness (Anthropometric characteristics in Table 1). Participants provided written informed consent prior to inclusion. Drink order was randomised prior to commencement. Participants refrained from alcohol and caffeine for 24 h prior to each visit and consumed an identical evening meal, at the same time before each visit. Testing started at 0800 h following an overnight (>8 h) fast, with a minimum of 72 h between visits. Venous blood samples (2 ml) were obtained using a 22G catheter inserted into an antecubital vein. […] Blood pHB was measured using a handheld monitor and reagent strips (Precision Xtra, Abbott Diabetes Care, UK). Blood samples were stored on ice, centrifuged and duplicate plasma aliquots stored at −80° C. and analysed within 6 weeks. Plasma glucose was assayed using a commercial analyzer (ABX Pentra, France), whereas insulin, total ghrelin, GLP-1 and PYY were measured using commercially available ELISA assays (Mercodia, Sweden and Merck Millipore, Germany).

PYY = assay: Plasma PYY after study drink (ELISA); type: in vivo, human; details: after 30 min
Protocol: as §1

plasma glucose = assay: Plasma glucose after study drink (commercial analyzer); type: in vivo, human
Protocol: as §1

total ghrelin = assay: Plasma total ghrelin after study drink (ELISA); type: in vivo, human
Protocol: A randomised, single-blinded, cross-over study examined the effects of isocaloric ketone ester (KE) and dextrose drinks hunger in healthy, normal-weight participants (n=15) (FIG. 1A). An external Research Ethics Committee (14/LO/0288) approved the study, which was conducted at the University of Oxford in accordance with the Declaration of Helsinki. Participants were healthy, aged 21-42 and with no history of major illness (Anthropometric characteristics in Table 1). Participants provided written informed consent prior to inclusion. Drink order was randomised prior to commencement. Participants refrained from alcohol and caffeine for 24 h prior to each visit and consumed an identical evening meal, at the same time before each visit. Testing started at 0800 h following an overnight (>8 h) fast, with a minimum of 72 h between visits. Venous blood samples (2 ml) were obtained using a 22G catheter inserted into an antecubital vein. Fasting blood samples were collected prior to all interventions and then at regular intervals for 4 h following the study drink. At identical time points, participants completed a validated three-measure visual-analogue-scale (VAS) to assess ‘hunger,’ ‘desire to eat and’ fullness' (Stubbs et al., “The use of visual analogue scales to assess motivation to eat in human subjects: a review of their reliability and validity with an evaluation of new hand-held computerized systems for temporal tracking of hunger ratings”, Br J Nutr, 2000, 84(4):405-15). Each drink contained 1.9 kCal/kg of pHB (as ketone ester) or dextrose. Drinks were diluted to 500 ml with a commercially available citrus-flavoured drink containing 65 kCal (5 g of carbohydrate) (Glaceau, UK). The dextrose drink was taste-matched using a bitterness additive (Symrise, Holzminden, Germany). Blood pHB was measured using a handheld monitor and reagent strips (Precision Xtra, Abbott Diabetes Care, UK). Blood samples were stored on ice, centrifuged and duplicate plasma aliquots stored at −80° C. and analysed within 6 weeks. Plasma glucose was assayed using a commercial analyzer (ABX Pentra, France), whereas insulin, total ghrelin, GLP-1 and PYY were measured using commercially available ELISA assays (Mercodia, Sweden and Merck Millipore, Germany).

hunger = assay: Visual-analogue-scale (VAS) for hunger, desire to eat and fullness after study drink; type: in vivo, human
Protocol: A randomised, single-blinded, cross-over study examined the effects of isocaloric ketone ester (KE) and dextrose drinks hunger in healthy, normal-weight participants (n=15) (FIG. 1A). An external Research Ethics Committee (14/LO/0288) approved the study, which was conducted at the University of Oxford in accordance with the Declaration of Helsinki. Participants were healthy, aged 21-42 and with no history of major illness (Anthropometric characteristics in Table 1). Participants provided written informed consent prior to inclusion. Drink order was randomised prior to commencement. Participants refrained from alcohol and caffeine for 24 h prior to each visit and consumed an identical evening meal, at the same time before each visit. Testing started at 0800 h following an overnight (>8 h) fast, with a minimum of 72 h between visits. Venous blood samples (2 ml) were obtained using a 22G catheter inserted into an antecubital vein. Fasting blood samples were collected prior to all interventions and then at regular intervals for 4 h following the study drink. At identical time points, participants completed a validated three-measure visual-analogue-scale (VAS) to assess ‘hunger,’ ‘desire to eat and’ fullness' (Stubbs et al., “The use of visual analogue scales to assess motivation to eat in human subjects: a review of their reliability and validity with an evaluation of new hand-held computerized systems for temporal tracking of hunger ratings”, Br J Nutr, 2000, 84(4):405-15). Each drink contained 1.9 kCal/kg of pHB (as ketone ester) or dextrose. Drinks were diluted to 500 ml with a commercially available citrus-flavoured drink containing 65 kCal ([…] of carbohydrate) (Glaceau, UK). The dextrose drink was taste-matched using a bitterness additive (Symrise, Holzminden, Germany). Prism6™ software was used for statistical analysis. VAS scores were measured as a distance (mm), and normalised by taking the baseline distance for each visit as ‘0’. Values are means±SEM with significance at p<0.05. […] Correlations were calculated using a two-tailed Pearson's test with a 95% confidence interval.

GLP-1 = assay: Plasma GLP-1 after study drink (ELISA); type: in vivo, human; details: after 30 min
Protocol: as §1

CC(O)CCOC(=O)CC(C)O (centres unmarked) [3-hydroxybutyl 3-hydroxybutyrate]
appetite (appetite): suppress appetite

C[C@@H](O)CCOC(=O)C[C@@H](C)O [(R)-3-hydroxybutyrate (R)-1,3-butanediol monoester]
plasma ghrelin levels (plasma ghrelin): reduce plasma ghrelin levels
circulating levels of (R)-3-hydroxybutyrate in the blood ([1]; in vivo): high circulating levels
uptake in the gut ([1]; in vivo): surprisingly high level of uptake

C[C@@H](O)CCOC(=O)C[C@@H](C)O [KE]
Plasma insulin levels (insulin; 30 min after drink, mean±SEM): 13±2 mU/L
plasma insulin, difference between KE and dextrose drinks (insulin; after 90 min): no significant differences
plasma PYY levels (PYY): 57 pg/mL
Plasma glucose levels (plasma glucose; 30 min after drink, mean±SEM): 5.1 ± 0.2 mM
plasma glucose, difference between KE and dextrose drinks (plasma glucose; after 90 min): no significant differences
plasma ghrelin (total ghrelin; 1 h following drink): 320 pg/mL
Total ghrelin AUC lower with KE vs. dextrose (total ghrelin; 4 h after drink): 17%
Total ghrelin AUC (total ghrelin; 4 h after drink, mean±SEM): 86 ± 6 ng·min/mL
plasma ghrelin lower than after dextrose (total ghrelin; between 2-4 h post-drink): > 100 pg/mL
Perceived 'Fullness' (hunger; KE vs dextrose drinks): the same
'desire to eat' lowered compared to dextrose drinks (hunger; for 1.5 to 4 h after drink): −50%
perception of 'hunger' lowered compared to dextrose drinks (hunger; for 1.5 to 4 h after drink): −50%
plasma GLP-1 levels (GLP-1): 5 pg/mL

(R)-3-hydroxybutyrate-glycerol partial ester
plasma ghrelin levels (plasma ghrelin): reduce plasma ghrelin levels
uptake in the gut ([1]; in vivo): surprisingly high level of uptake
circulating levels of (R)-3-hydroxybutyrate in the blood ([1]; upon consumption of a drink): high circulating levels
